The results in this text go back to patent US10392383B2, “3-(1H-benzo[d]imidazol-2-yl)-1H-pyrazolo[4,3-b]pyridines and therapeutic uses thereof” (Samumed, LLC, priority 2015, dated 2019).

Molecules are shown by their SMILES. Some results are limits rather than exact numbers.

The test system of one assay is IL-6 (THP-1 cells). In words: IL-6 inhibition in LPS-stimulated THP-1 monocytes (HTRF). The format is cell-based. As to conditions: Homo sapiens, IL-6 HTRF; for EC50: 500 ng/mL LPS, Table 6; for inhibition at 10 µM: LPS, Table 6, read-out: percent inhibition at 10 μM (given in parentheses for EC50 >10 μM). On the procedure: Human Monocyte Cell Culture: Human monocyte cell line (THP-1 cells; Catalog # TIB-202, ATCC, Manassas, Va.) were cultured in Roswell Park Memorial Institute (RPMI) 1640 Medium (Catalog #21870-100, Buffalo, N.Y.) with 1% L-glutamine, 1% HEPES, 1% Sodium Pyruvate, 2% Sodium Bicarbonate supplemented with 100 units/mL penicillin, 50 μg/mL streptomycin, 2-mercaptoethanol (0.05 mM) [basal medium] and 10% fetal bovine serum (Catalog #16140089, Life Technologies, Carlsbad, Calif.) at 37° C. and 5% CO2.
Compound Screening: THP-1 cells were cultured in basal media with 1% FBS for 24 hours before the start of the assay. Each compound was dissolved in DMSO as a 10 mM stock and used to prepare compound source plates. Serial dilution (1:3, 10-point dose-response curves starting from 10 μM) and compound transfer was performed using the ECHO 550 (Labcyte, Sunnyvale, Calif.) into 384-well white low volume assay plates (Greiner Bio-One) with appropriate DMSO backfill for a final DMSO concentration of 0.1%. THP-1 cells were plated at 5000 cells/well in the 384-well plates and incubated at 37° C. for 2 h. 500 ng/mL of LPS was added after 2 hours and cells were incubated for another 22 hours at 37° C. Plates were spun in a centrifuge for 1 minute at […] and a mixture of anti-IL6 XL665, and anti-IL6 Cryptate diluted in reconstitution buffer (Cisbio Inc.) was added to each well. Following incubation for 3 hrs at room temperature, Homogeneous Time-Resolved Fluorescence (HTRF) was measured using the Envision (Perkin Elmer) at 665 nm and […]. The ratio of fluorescence at 665 nm to 620 nm was used as a readout for IL6 quantification. All samples were processed in duplicate. Readings were normalized to DMSO treated cells and normalized activities were utilized for EC50 calculations using the dose-response log (inhibitor) vs. response-variable slope (four parameters) nonlinear regression feature available in GraphPad Prism 5.0 (or Dotmatics). For EC50 of >10 μM, the percent inhibition at 10 μM is provided.

Assay [1] has as its system Wnt activity (Sp5-Luc reporter, Wnt-responsive promoter) in SW480 colon carcinoma cells. The experiment in a line: Wnt activity screening assay: Sp5-Luc reporter gene assay in SW480 cells. The format is cell-based. As to conditions: Homo sapiens; for inhibition at 10 µM: read-out: percent inhibition at 10 μM (given for EC50 of >10 μM); for EC50: overnight incubation, 10-point curve starting from 10 μM. An excerpt:
The screening assay for Wnt activity is described as follows. Reporter cell lines can be generated by stably transducing cancer cell lines (e.g., colon cancer) or primary cells (e.g., IEC-6 intestinal cells) with a lentiviral construct that includes a Wnt-responsive promoter driving expression of the firefly luciferase gene.
SW480 colon carcinoma cells were transduced with a lentiviral vector expressing luciferase with a human Sp5 promoter consisting of a sequence of eight TCF/LEF binding sites. SW480 cells stably expressing the Sp5-Luc reporter gene and a hygromycin resistance gene were selected by treatment with 150 μg/mL of hygromycin for 7 days. These stably transduced SW480 cells were expanded in cell culture and used for all further screening activities. Each compound was dissolved in DMSO as a 10 mM stock and used to prepare compound source plates. Serial dilution (1:3, 10-point dose-response curves starting from 10 μM) and compound transfer was performed using the ECHO 550 (Labcyte, Sunnyvale, Calif.) into 384-well white solid bottom assay plates (Greiner Bio-One) with appropriate DMSO backfill for a final DMSO concentration of 0.1%. For Sp5-Luc reporter gene assays, the cells were plated at 4,000 cells/well in 384-well plates with medium containing 1% fetal bovine serum and incubated overnight at 37° C. and 5% CO2. Following incubation, 20 μl of BrightGlo luminescence reagent (Promega) was added to each well of the 384-well assay plates. The plates were placed on an orbital shaker for 2 min and then luminescence was quantified using the Envision (Perkin Elmer) plate reader. Readings were normalized to DMSO only treated cells, and normalized activities were utilized for EC50 calculations using the dose-response log (inhibitor) vs. response-variable slope (four parameters) nonlinear regression feature available in GraphPad Prism 5.0 (or Dotmatics). For EC50 of >10 μM, the percent inhibition at 10 μM is provided.

For the molecule `c1cc(-c2ccncc2)c2nc(-c3n[nH]c4ccc(-c5ccncc5)nc34)[nH]c2c1` [Compound 130, 5-(Pyridin-4-yl)-3-(4-(pyridin-4-yl)-1H-benzo[d]imidazol-2-yl)-1H-pyrazolo [4,3-b]pyridine], in the assay on IL-6 (THP-1 cells), the EC50 was more than 10 µM and the inhibition at 10 µM was 48.7%. Also, in assay [1], the inhibition at 10 µM was 39.7% and the EC50 was more than 10 µM.

`O=C(Nc1cncc(-c2ccc3[nH]nc(-c4nc5c(-c6ccncc6)cccc5[nH]4)c3n2)c1)C1CCCCC1` [Compound 135, N-(5-(3-(4-(pyridin-4-yl)-1H-benzo[d]imidazol-2-yl)-1H-pyrazolo[4,3-b]pyridin-5-yl)pyridin-3-yl)cyclohexanecarboxamide]: the EC50 (in the assay with IL-6 (THP-1 cells); in assay [1]) was more than 10 µM throughout. The inhibition at 10 µM with IL-6 (THP-1 cells) was determined as 32.4%; in assay [1], 5.4%.

Regarding `CCNCc1cncc(-c2ccc3[nH]nc(-c4nc5c(-c6ccccn6)cccc5[nH]4)c3n2)c1` [Compound 146, N-((5-(3-(4-(Pyridin-2-yl)-1H-benzo[d]imidazol-2-yl)-1H-pyrazolo[4,3-b]pyridin-5-yl)pyridin-3-yl)methyl)ethanamine], the EC50 (with IL-6 (THP-1 cells); in assay [1]) was more than 10 µM in each case. Moreover, the inhibition at 10 µM came to 19.5% in the assay with IL-6 (THP-1 cells) and 41.6% in assay [1].

`O=C(Nc1cncc(-c2ccc3[nH]nc(-c4nc5c(-c6ccccn6)cccc5[nH]4)c3n2)c1)c1ccccc1` [Compound 151, N-(5-(3-(4-(Pyridin-2-yl)-1H-benzo[d]imidazol-2-yl)-1H-pyrazolo[4,3-b]pyridin-5-yl)pyridin-3-yl)benzamide]: in the assay with IL-6 (THP-1 cells), the EC50 was more than 10 µM and the inhibition at 10 µM is 22%. Moreover, in assay [1], the inhibition at 10 µM stood at 34.2% and the EC50 is more than 10 µM.

Turning to `CCCCC(=O)Nc1cncc(-c2ccc3[nH]nc(-c4nc5c(-c6ccccn6)cccc5[nH]4)c3n2)c1` [Compound 159, N-(5-(3-(4-(Pyridin-2-yl)-1H-benzo[d]imidazol-2-yl)-1H-pyrazolo[4,3-b]pyridin-5-yl)pyridin-3-yl)pentanamide], in the assay with IL-6 (THP-1 cells), the EC50 is more than 10 µM and the inhibition at 10 µM is 26.6%. In addition, in assay [1], the inhibition at 10 µM amounted to 11.3% and the EC50 is more than 10 µM.

Take `CCC(=O)Nc1cncc(-c2ccc3[nH]nc(-c4nc5c(N6CCCCC6)cccc5[nH]4)c3n2)c1` [Compound 169, N-(5-(3-(4-(Piperidin-1-yl)-1H-benzo[d]imidazol-2-yl)-1H-pyrazolo[4,3-b]pyridin-5-yl)pyridin-3-yl)propionamide]: the EC50 with IL-6 (THP-1 cells) is 0.161 µM; in assay [1], 3.79 µM.

For `CN(C)c1cncc(-c2ccc3[nH]nc(-c4nc5c(N6CCCCC6)cccc5[nH]4)c3n2)c1` [Compound 175, N,N-dimethyl-5-(3-(4-(piperidin-1-yl)-1H-benzo[d]imidazol-2-yl)-1H-pyrazolo[4,3-b]pyridin-5-yl)pyridin-3-amine], the EC50 in the assay on IL-6 (THP-1 cells) was determined as 2.97 µM; in assay [1], 2.13 µM.

As to `CN(C)Cc1cncc(-c2ccc3[nH]nc(-c4nc5c(N6CCCCC6)cccc5[nH]4)c3n2)c1` [Compound 181, N,N-dimethyl-1-(5-(3-(4-(piperidin-1-yl)-1H-benzo[d]imidazol-2-yl)-1H-pyrazolo[4,3-b]pyridin-5-yl)pyridin-3-yl)methanamine], the half-maximal effective concentration (EC50) amounted to 4.94 µM with IL-6 (THP-1 cells) and 1.89 µM in assay [1].

In the assay with IL-6 (THP-1 cells), `CN1CCN(c2cccc3[nH]c(-c4n[nH]c5ccc(-c6cncc(N)c6)nc45)nc23)CC1` [Compound 227, 5-(3-(4-(4-Methylpiperazin-1-yl)-1H-benzo[d]imidazol-2-yl)-1H-pyrazolo [4,3-b]pyridin-5-yl)pyridin-3-amine] displayed an EC50 of 8.32 µM. In assay [1], the inhibition at 10 µM was found to be 48.8% and the EC50 was more than 10 µM.

Take `CC(C)C(=O)Nc1cncc(-c2ccc3[nH]nc(-c4nc5c(N6CCN(C)CC6)cccc5[nH]4)c3n2)c1` [Compound 233, N-(5-(3-(4-(4-Methylpiperazin-1-yl)-1H-benzo[d]imidazol-2-yl)-1H-pyrazolo[4,3-b]pyridin-5-yl)pyridin-3-yl)isobutyramide]: in the assay on IL-6 (THP-1 cells), the EC50 was more than 10 µM and the inhibition at 10 µM stood at 42.9%. In assay [1], the inhibition at 10 µM was determined as 7.3% and the EC50 is more than 10 µM.

Molecule `CN1CCN(c2cccc3[nH]c(-c4n[nH]c5ccc(-c6cncnc6)nc45)nc23)CC1` [Compound 251, 3-(4-(4-Methylpiperazin-1-yl)-1H-benzo[d]imidazol-2-yl)-5-(pyrimidin-5-yl)-1H-pyrazolo[4,3-b]pyridine] gave an EC50 with IL-6 (THP-1 cells) of 2.23 µM. Besides, in assay [1], the inhibition at 10 µM stood at 4.7% and the EC50 was more than 10 µM.

For `O=C(Cc1ccccc1)Nc1cncc(-c2ccc3[nH]nc(-c4nc5ccccc5[nH]4)c3n2)c1` [Compound 262, N-(5-(3-(1H-Benzo[d]imidazol-2-yl)-1H-pyrazolo[4,3-b]pyridin-5-yl)pyridin-3-yl)-2-phenylacetamide], the EC50 is 1.09 µM in the assay with IL-6 (THP-1 cells) and more than 10 µM in assay [1]. Besides, in assay [1], the inhibition at 10 µM worked out at 11.2%.

On to `O=C(Nc1cncc(-c2ccc3[nH]nc(-c4nc5c(-c6ccsc6)cccc5[nH]4)c3n2)c1)c1ccccc1` [Compound 291, N-(5-(3-(4-(Thiophen-3-yl)-1H-benzo[d]imidazol-2-yl)-1H-pyrazolo[4,3-b]pyridin-5-yl)pyridin-3-yl)benzamide], for which, in the assay on IL-6 (THP-1 cells), the EC50 is more than 10 µM and the inhibition at 10 µM worked out at 28.9%. In addition, in assay [1], the inhibition at 10 µM is 42.5% and the EC50 is more than 10 µM.

`Cc1ccc(-c2cccc3[nH]c(-c4n[nH]c5ccc(-c6cncc(NC(=O)C7CCCC7)c6)nc45)nc23)s1` [Compound 414, N-(5-(3-(4-(5-Methylthiophen-2-yl)-1H-benzo[d]imidazol-2-yl)-1H-pyrazolo [4,3-b]pyridin-5-yl)pyridin-3-yl)cyclopentanecarboxamide] came in with an EC50 in the assay with IL-6 (THP-1 cells) of 0.0983 µM. Further, in assay [1], the inhibition at 10 µM was 7.2% and the EC50 was more than 10 µM.

`CS(=O)(=O)NCc1cc(F)cc(-c2cccc3[nH]c(-c4n[nH]c5ccc(-c6cncc(NC(=O)c7ccccc7)c6)nc45)nc23)c1` [Compound 487, N-(5-(3-(4-(3-Fluoro-5-(methylsulfonamidomethyl)phenyl)-1H-benzo[d]imidazol-2-yl)-1H-pyrazolo[4,3-b]pyridin-5-yl)pyridin-3-yl)benzamide]: the concentration giving a half-maximal response (EC50) (in the assay with IL-6 (THP-1 cells); in assay [1]) was more than 10 µM throughout. Moreover, the inhibition at 10 µM (with IL-6 (THP-1 cells); in assay [1]) was 0% in each case.

For `Fc1cccc(-c2cccc3[nH]c(-c4n[nH]c5ccc(C6=CCNCC6)nc45)nc23)c1` [Compound 506, 3-(4-(3-Fluorophenyl)-1H-benzo[d]imidazol-2-yl)-5-(1,2,3,6-tetrahydropyridin-4-yl)-1H-pyrazolo[4,3-b]pyridine], in the assay on IL-6 (THP-1 cells), the EC50 is more than 10 µM and the inhibition at 10 µM was found to be 25.9%. For the same molecule, in assay [1], the inhibition at 10 µM stood at 10% and the concentration for a half-maximal effect (EC50) is more than 10 µM.

With `Fc1cccc(-c2cccc3[nH]c(-c4n[nH]c5ccc(-c6cn[nH]c6)nc45)nc23)c1` [Compound 507, 3-(4-(3-Fluorophenyl)-1H-benzo[d]imidazol-2-yl)-5-(1H-pyrazol-4-yl)-1H-pyrazolo[4,3-b]pyridine], the EC50 (with IL-6 (THP-1 cells); in assay [1]) was more than 10 µM in each case. Further, the inhibition at 10 µM with IL-6 (THP-1 cells) is 31.7%; in assay [1], 36%.

A word on the EC50: it is the concentration giving half of the maximal effect. Lower therefore signals an effect from little substance. The inhibition is how much of the control response was suppressed.
